Data on three molecules can be found in patent US4889953A, “Glycerol derivatives, their production and use” (Takeda Chemical Industries, Ltd., priority 1986, dated 1989).

For data set [1] the following is noted: unlike PAF; cited from earlier work.
Data set [2] has as its system mouse mammary carcinoma cells MM46. Put plainly: Antitumor action, MM46 intraperitoneal in C3H mice, life-span and survivors on 40th day (Test Example 3). The format is in vivo. Conditions: 0.25 mg/mouse once a day for 4 days. How it is done: (§1) Antitumor action of the compound of Working Example 8
C3H mice (a group consisting of 5 mice) were inoculated intraperitoneally with 1×10^4 mouse mammary carcinoma cells MM46 per mouse, and given 0.25 mg/mouse of the compound of Working Example 8 dissolved in physiological saline once a day for 4 consecutive days starting from the second day after the inoculation. The Reference compound (IV) was given under the same conditions. Shown in Table 3 are the life-span prolongation ratio against the untreated control group and the number of survived mice on the 40th day after initiation of the test.

For data set [3] the following is noted: due to PAF-related structure; cited from earlier work.
For data set [4], the system named is Platelet aggregation caused by PAF. Put plainly: Inhibition of PAF-induced platelet aggregation in rabbit PRP (Test Example 5). The format is cell-based. To be noted: Oryctolagus cuniculus, PAF 1×10^-8 M, read-out: inhibition ratio (%) of PAF-induced platelet aggregation; for inhibition at 30 µM: 3 × 10^-5 M; for inhibition at 3 µM: 3 × 10^-6 M. The protocol: Blood was collected directly from a male rabbit, using a syringe containing 3.15% of citric acid (at a ratio of 1 part to 9 parts of blood) as an anticoagulant, and centrifuged at 800 rpm for 10 minutes at room temperature to obtain platelet rich plasma (PRP). The remaining blood was centrifuged further at 3000 rpm for 10 minutes to obtain platelet poor plasma (PPP) as the supernatant. By dilution of PRP with PPP, the platelet count was adjusted to about 500,000 cells/μl. After 250 μl of the resulting PRP was stirred at 37° C. for 2 minutes, a certain amount of the test compound was added, and the mixture was stirred for further 2 minutes, and then 1×10^-8 M of PAF was added. Platelet aggregation was measured by using a platelet aggregometer (manufactured by Rika Denki Co. in Japan). The aggregation-inhibiting activity of a test compound was determined from the inhibition ratio against maximal transmittance (maximal aggregation ratio) caused by PAF in the control PRP.

In data set [5] the test system is Sarcoma 180 cells. Nature of the data set: Antitumor action, Sarcoma 180 subcutaneous in ICR mice, intravenous dosing, tumor proliferation inhibition (Test Example 2). The format is in vivo. Conditions: 0.3 mg/mouse i.v. 9 times; tumor weight after 21 days. How it is done: as §1
ICR mice (a group consisting of 5 mice) were inoculated subcutaneously with 1×10^6 Sarcoma 180 cells per mouse, and given intravenously 0.03 mg/mouse or 0.3 mg/mouse of the compound of Working Example 8 dissolved in physiological saline 9 times in total, i.e. 8, 9, 10, 13, 14, 15, 16, 17, and 20 days after inoculation. The Reference compound (IV), 0.3 mg/mouse, was given under the same conditions. After 21 days, the tumor tissue was extirpated and the tumor weight was weighed. Shown in Table 2 is tumor proliferation inhibition ratio as compared with the untreated control group.

For data set [6], the system named is Sarcoma 180 cells. Nature of the data set: Antitumor action, Sarcoma 180 intraperitoneal in ICR mice, life-span and survivors on 40th day (Test Example 1). The format is in vivo. To be noted: 0.33 mg/mouse i.p. three times; for Life-span prolongation ratio (T/C, %): only related to mice found dead. The protocol: Antitumor action of the compounds in Working Examples
ICR mice (a group consisting of five mice) were inoculated intraperitoneally with 1×10^5 Sarcoma 180 cells per mouse, and then given intraperitoneally 0.33 mg/mouse of a compound dissolved in physiological saline, three times, i.e. 1 hour, 1 day and 2 days after inoculation. Reference compound IV, Va or Vb was given to mice under the same conditions. Shown in Table 1 are the life-span prolongation ratio against the untreated control group and the number of survived mice on the 40th day after the initiation of the test.

Data set [7] deals with Sarcoma 180 cells. Put plainly: Antitumor action, Sarcoma 180 subcutaneous in ICR mice, intravenous dosing, tumor proliferation inhibition (Test Example 7). The format is in vivo. Conditions: 0.3 mg/mouse i.v. 9 times; tumor weight after 21 days. The protocol: (§2) Antitumor action of the compounds of Working Examples
ICR mice (a group consisting of 5 mice) were inoculated subcutaneously with 1×10^5 Sarcoma 180 cells per mouse, and given intravenously 0.3 mg/mouse of a compound of a Working Example dissolved in physiological saline 9 times in total, i.e. 8, 9, 10, 13, 14, 15, 16, 17, and 20 days after inoculation. After 21 days, the tumor tissue was extirpated and the tumor weight was weighed. Shown in Table 7 is tumor proliferation inhibition ratio as compared with the untreated control group.

Data set [8] has as its system Sarcoma 180 cells. Nature of the data set: Antitumor action, Sarcoma 180 subcutaneous in ICR mice, oral dosing (Test Example 9). To be noted: 0.3 mg/mouse orally eight times, after 20 days. The format is in vivo. The protocol:
Antitumor action of the compounds of Working Examples 8 and 24
ICR mice (a group consisting of 5 mice) were inoculated subcutaneously at the dorsolateral area with […] 1×10^6 Sarcoma 180 cells per mouse, and given orally 0.3 mg/mouse of the compound of Example 8 or the compound of Example 24 eight times in total, i.e. 8th, 9th, 10th, 13th, 14th, 15th, 16th, and 17th day after inoculation. After 20 days the tumor tissue was extirpated and the tumor weight was weighed. Shown in Table 9 is tumor proliferation inhibition ratio against the untreated control.

The subject of data set [9] is Sarcoma 180 cells. Put plainly: Antitumor action, Sarcoma 180 intraperitoneal in ICR mice, life-span and survivors on 60th day (Test Example 6). The format is in vivo. Conditions: Sarcoma-180, ip, 1440 h, 0.33 mg/mouse i.p. three times. The protocol:
as §2
ICR mice (a group consisting of five mice) were inoculated intraperitoneally with 1×10^5 Sarcoma 180 cells per mouse, and then given intraperitoneally 0.33 mg/mouse of a compound dissolved in physiological saline, three times, i.e. 1 hour, 1 day and 2 days after inoculation. Shown in Table 6 are the life-span prolongation ratio against the untreated control group and the number of survived mice on the 60th day after the initiation of the test.

Data set [10] deals with macrophages. To be noted: even at about 1000 times concentration of that of PAF; cited from earlier work.

`CCCCCCCCCCCCCCCCCCOCC(COP(=O)([O-])OCC[N+](C)(C)C)OC` (centres unmarked) [Compound IV, reference compound]: the antitumor actions result in data set [1] is listed as “antitumor actions”. Moreover, in [2], the “No. of survivors/No. of mice tested” value is listed as 0/5. For the same molecule, the “Life-span prolongation ratio (T/C, %)” value in [2] (survivors not included) came out at 155%. Further, in data set [3], the PAF-like actions result is “serotonin liberation, bronchial constriction, platelet aggregation, and blood pressure lowering”. Further, in [4], the inhibition at 30 µM stood at 0% and the inhibition at 3 µM is 0%. Moreover, the inhibition at 0.3 µM in [4] (3 × 10^-7 M) was 0%. Further, the “Inhibition ratio (1-T/C) (%)” value in data set [5] is 58%. Further, in [6], the “No. of survivors/No. of mice tested” value was 0/5 and the “Life-span prolongation ratio (T/C, %)” value turned out to be 162%.
Regarding `COC(COCCCCCCCCCCCCC1CCCCC1)COCCOCC[N+](C)(C)C` (centres unmarked) [Example 24, 2-[2-[3-(12-Cyclohexyl)dodecyloxy-2-methoxypropyloxy]ethoxy]ethyltrimethylammonium chloride], the “Inhibition ratio (1-T/C) (%)” value in data set [7] is 78%. For the same molecule, in data set [4], the inhibition at 30 µM worked out at 100% and the inhibition at 3 µM is 63%. Also, in data set [6], the “No. of survivors/No. of mice tested” value was 3/5 and the “Life-span prolongation ratio (T/C, %)” value came to 262%. Besides, the “Weight of tumor” value in [8] worked out at 0.35 ± 0.15 g. Further, the “Inhibition ratio (%)” value in data set [8] (against untreated control) is given as 75%. Besides, in [9] (60th day, read-out: No. of survivors/No. of mice tested (converted)), the responders at 0.33 mg is 0%. In addition, in [9] (survivors on day 60 not included, read-out: Life-span prolongation ratio (T/C)), the response vs control in vivo at 0.33 mg was 302%.
As for lysolecithin, in data set [10], the macrophage activation result is listed as “cannot activate macrophages”.
